Measured values reported in patent publication US8129349B2, “Treatment of disease by inducing cell apoptosis” (The Regents of the University of California, priority 2000, dated 2012).
Each block holds one molecule with its values, some of them ahead of it. Non-standard residues stand in square brackets, D forms with d. pT = C[C@@H](OP(=O)(O)O)[C@H](N)C(=O)O

Columns and labels:
caspase 1 = target: T1, caspase 1 (Homo sapiens, UniProt P29466); assay: In vitro self-activation of recombinant caspase 1; format: biochemical; conditions: peptides 200 μM, 2 h, procaspase 1 (1U)
T1 construct: purchased Alexis Biochemicals 201-056
T1 sequence (P29466 120-404): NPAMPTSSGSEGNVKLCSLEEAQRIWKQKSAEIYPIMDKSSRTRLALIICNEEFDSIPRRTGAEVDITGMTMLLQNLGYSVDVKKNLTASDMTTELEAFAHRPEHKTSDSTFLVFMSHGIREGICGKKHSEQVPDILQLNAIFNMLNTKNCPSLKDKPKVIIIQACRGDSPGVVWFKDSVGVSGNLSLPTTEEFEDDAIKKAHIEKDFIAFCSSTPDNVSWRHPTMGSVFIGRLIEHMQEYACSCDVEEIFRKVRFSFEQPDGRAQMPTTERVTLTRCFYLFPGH
Description: (§1) FIG. 5 provides results showing the direct association of C/EBPβ-Glu^217 with procaspases 1 and 8. […] Enzyme activity was measured in the absence (control) or presence of C/EBPβ peptides (200 μM) for 2 h, using a procaspases 1 (1U) (not shown) and 8 (0.2 μg) activity assay. Values are presented as the mean±one half the range of duplicates. Panel C provides results for cells cultured on a collagen type I matrix and incubated with the indicated cell permeant, purified synthetic N-acetyl, C-aldehyde C/EBPβ tetra-peptides (10 μM) or with recombinant C/EBPβ-HA peptides as indicated, together with the Chariot reagent (Active Motif) for 4 h. Control cells were incubated without peptides (P<0.05 for all peptides containing Ala^217).
(§2) Purified recombinant C/EBPβ peptides, expressed as known in the art (See, Descombes et al., supra; and Buck et al. (1994), supra), and purified synthetic N-acetyl, C-aldehyde tetrapeptides (200 μM) (American Peptide Company) were assayed for their ability to inhibit the activity of purified human recombinant caspases 1 (catalogue # 201-056) and 8 (catalogue # 201-041-C005) (Alexis Biochemicals). The sequence of caspase 8 includes Ser217 through Asp479 cloned into an expression vector containing a 21 amino acid linker at the N-terminus. Thus, the prodomain (first 220 amino acids) is essentially missing. […] Caspase activity was determined by the release of the p-nitroaniline colorimetric (Alexis Biochemicals) substrate for caspase 1 (catalogue # 260-026) or 8 (catalogue # 260-045) within the linear part of the kinetic assay (Thornberry et al. (1997), supra; Stennicke and Salvesen, supra). […]
To delineate the role of C/EBPβ on the activation of procaspases 1 and 8, the self-activation of recombinant procaspases 1 and 8 was induced in vitro (Wilson et al., supra; Margolin et al., supra; and Earnshaw et al., supra), and the effect of purified recombinant C/EBPβ peptides, produced as described previously (Descombes et al., supra; and Buck et al., (1994), supra) on this process was determined. […]

caspase 8 = target: T2, caspase 8 (Homo sapiens, UniProt Q14790); assay: In vitro self-activation of recombinant caspase 8; format: biochemical; conditions: peptides 200 μM, 2 h, procaspase 8 (0.2 μg), colorimetric substrate
T2 construct: 21 amino acid linker (vector-derived) (N); purchased Alexis Biochemicals 201-041-C005
Description: as §1
(§3) FIG. 7 provides data showing that phosphorylation of rat C/EBPβ on Ser^105 prevents stellate cell apoptosis. Panel A provides results for mouse stellate cells transfected as described herein (See, FIG. 2), with mutant p90RSK or treated with lactacystin (10 μM) (closed bars), and co-transfected with CMV-rC/EBPβ-Asp^105 (1 μg each) (open bars) as indicated. Annexin-V-PE binding was determined as described for FIG. 2 (P<0.05 for rC/EBPβ-Asp^105). Panel B provides results of an annexin-V-PE assay for stellate cells from C/EBPβ^+/+ (closed circles) and rC/EBPβ-Asp^105 transgenic (open circles) mice treated with lactacystin (0-30 μM). The annexin-V-PE assay was performed 6 hours after treatment began (P<0.05 for rC/EBPβ-Asp^105 transgenic mice for 5-25 μM lactacystin). Panel C provides results for rC/EBPβ-HA constructs (0.3 μg) transfected into rat stellate cells. The expressed peptides were immunoprecipitated with anti-HA antibodies. Using a specific antibody, rCEBPβ-PSer^105 was detected only in cells that expressed wild-type rC/EBPβ. […] Reciprocal immunoprecipitations confirmed these associations. […] Enzyme activity was measured using a colorimetric substrate as described in the Examples. […]
as §2, with “Biochemicals).” for “Biochemicals). The sequence of caspase 8 includes Ser217 through Asp479 cloned into an expression vector containing a 21 amino acid linker at the N-terminus. Thus, the prodomain (first 220 amino acids) is essentially missing.”

procaspase 8 = procaspase 8 (Homo sapiens, UniProt Q14790); conditions: cited from earlier work
C/EBPβ+/+ stellate cells = assay: Annexin-V-PE assay of stellate cells treated with lactacystin; format: cell-based, mouse; conditions: lactacystin 0-30 μM, 6 hours after treatment began
Description: as §3

[1] = tested on: C/EBPβ-Ala^217 stellate cells; assay: Apoptosis of stellate cells from C/EBPβ-Ala^217 transgenic mice, Hoechst 33342 nuclear staining; format: cell-based, mouse; conditions: collagen type I; IETD or transfection 1 μg
Description: FIG. 2 provides results showing increased apoptosis in hepatic stellate cells from C/EBPβ^−/− and C/EBPβ-Ala^217 transgenic mice. […] Six hours after cultivation, an annexin-V-PE binding assay was performed (P<0.05 for C/EBPβ^−/− and C/EBPβ-Ala^217). […] Apoptotic cells are indicated with arrowheads.
(§4) Fluorescent labels were observed using a triple-channel fluorescence microscope. The fluorochromes utilized were FITC and Texas red (Molecular Probes). The number of annexin V (+) cells was determined by in vivo microscopy as known in the art (See, Rudel and Bokoch, supra) among all cells or those expressing the GFP indicator protein either co-transfected with C/EBPβ proteins, or alone. These values are reported herein as a percentage of annexin V (+) for cells expressing the transfected DNA. At least 1000 cells were analyzed per experimental point, including at least 100 cells expressing the transfected DNA (Buck and Chojkier, EMBO J., 15:1753-1765 (1996); Buck et al., (1994), supra; and Buck et al., (1999), supra). […] Nuclear morphology was analyzed by staining cells with Hoechst 33342 (Molecular Probes). […]

[2] = tested on: stellate cells from C/EBPβ−/− mice; assay: Rescue from apoptosis of stellate cells from C/EBPβ−/− mice by cell permeant tetrapeptides; format: cell-based, mouse; conditions: C/EBPβ−/− cells activated by collagen type I, tetrapeptides 10 μM, Chariot reagent, 4 hours
hepatic stellate cells = assay: Apoptosis of stellate cells on collagen type I incubated with cell permeant peptides; format: cell-based, mouse; conditions: collagen type I matrix, tetrapeptides 10 μM, Chariot reagent, 4 h
Description: as §1, with “Ala^217). […]” for “Ala^217).”
as §4, with “The fluorochromes utilized were FITC and Texas red (Molecular Probes).” left out, “These values are reported herein as a percentage of annexin V (+) for cells expressing the transfected DNA.” left out

T2 sequence (Q14790 217-479): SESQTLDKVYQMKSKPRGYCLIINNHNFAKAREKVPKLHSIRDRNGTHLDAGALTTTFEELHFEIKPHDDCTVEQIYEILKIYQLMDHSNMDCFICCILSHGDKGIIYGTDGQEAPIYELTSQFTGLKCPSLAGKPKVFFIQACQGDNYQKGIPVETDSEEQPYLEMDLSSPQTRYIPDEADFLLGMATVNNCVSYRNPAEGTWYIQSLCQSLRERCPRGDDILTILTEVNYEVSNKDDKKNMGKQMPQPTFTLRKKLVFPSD
procaspase 8, sequence (Q14790 whole entry): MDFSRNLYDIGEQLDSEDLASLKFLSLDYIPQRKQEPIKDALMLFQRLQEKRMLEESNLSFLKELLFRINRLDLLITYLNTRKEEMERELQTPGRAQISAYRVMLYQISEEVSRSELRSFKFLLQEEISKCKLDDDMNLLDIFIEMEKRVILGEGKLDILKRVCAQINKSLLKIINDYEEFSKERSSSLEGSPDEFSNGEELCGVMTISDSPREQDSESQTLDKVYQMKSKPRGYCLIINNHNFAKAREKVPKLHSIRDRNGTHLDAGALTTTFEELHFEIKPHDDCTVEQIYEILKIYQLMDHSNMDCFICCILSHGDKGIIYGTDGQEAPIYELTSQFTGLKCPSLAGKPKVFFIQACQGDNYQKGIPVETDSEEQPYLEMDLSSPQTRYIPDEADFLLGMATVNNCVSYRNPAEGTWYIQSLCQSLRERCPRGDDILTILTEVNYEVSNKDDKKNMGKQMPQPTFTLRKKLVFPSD

Molecule: Ac-K-Phospho-T^217VD-CHO (Ac-K[pT]VD-aldehyde; SMILES CC(=O)N[C@@H](CCCCN)C(=O)N[C@H](C(=O)N[C@H](C(=O)N[C@H](C=O)CC(=O)O)C(C)C)[C@@H](C)OP(=O)(O)O) [synthetic N-acetyl, C-aldehyde C/EBPβ 216-219-PThr^217 tetrapeptide]
- Inhibition of in vitro self-activation of caspase 1 (caspase 1): inhibited the in vitro self-activation
- Inhibition of in vitro self-activation of caspase 8 (caspase 8): inhibited the in vitro self-activation

Molecule: DEVD-CHO
- Ki (procaspase 8): 12 nM

Molecule: CC(=O)N[C@@H](CSC(=O)[C@]1([C@@H](O)C(C)C)NC(=O)[C@H](C)[C@@H]1O)C(=O)O [Lactacystin, lactacystin]
- Stellate cell apoptosis (C/EBPβ+/+ stellate cells): significant and rapid increase

Molecule: IETD [reference compound]
- Block of apoptosis of C/EBPβ-Ala^217 stellate cells [1]: blocked

- Inhibition of in vitro self-activation of caspase 1 (caspase 1): inhibited the in vitro self-activation
- Inhibition of in vitro self-activation of caspase 8 (caspase 8): inhibited the in vitro self-activation
Molecule: Ac-KE^217VD-CHO (Ac-KEVD-aldehyde; SMILES CC(=O)N[C@@H](CCCCN)C(=O)N[C@@H](CCC(=O)O)C(=O)N[C@H](C(=O)N[C@H](C=O)CC(=O)O)C(C)C) [cell permeant synthetic N-acetyl, C-aldehyde tetrapeptide, phosphorylation mimic domain of C/EBPβ]
- Rescue of stellate cells from apoptosis [2]: rescued these cells from apoptosis

- Inhibition of in vitro self-activation of caspase 8 (caspase 8): inhibited the in vitro self-activation
Molecule: Ac-KKPD^105-CHO (Ac-KKPD-aldehyde; SMILES CC(=O)N[C@@H](CCCCN)C(=O)N[C@@H](CCCCN)C(=O)N1CCC[C@H]1C(=O)N[C@H](C=O)CC(=O)O) [cell permeant synthetic N-acetyl, C-aldehyde tetrapeptide, phosphorylation mimic domain of rC/EBPβ]
- Rescue of stellate cells from apoptosis [2]: rescued these cells from apoptosis

Molecule: Ac-KA^217VD-CHO
- Induction of apoptosis of stellate cells (hepatic stellate cells): induced apoptosis
